Measurements published in article PMC3238500 (Archives of biochemistry and biophysics, 2011).

Molecular target: pyruvate carboxylase R472S mutant (RePC) (Rhizobium etli, UniProt Q2K340, R472S)
Type: biochemical

## CC(=O)SCCNC(=O)CCNC(=O)[C@H](O)C(C)(C)COP(=O)(O)OP(=O)(O)OC[C@H]1O[C@@H](n2cnc3c(N)ncnc32)[C@H](O)[C@@H]1OP(=O)(O)O [acetyl CoA]
  Ka (activation constant): 1.65 ± 0.05 mM
